Measured values from patent US20220402948A1, “EGFR INHIBITOR, COMPOSITION AND PREPARATION METHOD THEREFOR” (BETTA PHARMACEUTICALS CO., LTD., priority 2019, published 2022).
Like-named read-outs stand apart in the source and are kept apart here.

Legend:
[1] = molecular target: Ba/F3-EGFR wild-type cell line (Homo sapiens, UniProt P00533); assay: Ba/F3-EGFR wild-type cell proliferation assay (CellTiter Glo, 72 hours); assay type: cell-based; conditions: Table 2, read-out: EGFR WT IC50
Method: Cell line: Ba/F3 cells with EGFR Δ19del/T790M/C797S mutation gene stably overexpressed named Ba/F3-Δ119del/T90M/C797S, and A431 and Ba/F3-EGFR wild-type cell line.
a) Centrifuge the growth cells in logarithmic phase at 1000 rpm for 5 minutes, resuspend the cells in culture medium, and then count the cells;
b) Inoculate the cells into a 96-well cell culture plate with a density of 2000 cells/well;
b) Incubate cells in an incubator for another 72 hours.
a) Take out the 96-well cell culture plate and add 50 μl CTG reagent (CellTiter Glo kit, promega, Cat #G7573);
b) Shake the plate for 2 minutes and let cool at room temperature for 10 minutes;
c) Read luminous signal value with PerkinElmer reader,
Analysis of Experimental Data
The data were analyzed by GraphPad Prism 6.0 software to obtain the fitting curve of compound activity.
Y=Min+(Max−Min)/(1+10^((Log IC50−X)*slope));
X: Logarithm of compound concentration; Y: luminous signal.

[2] = molecular target: Ba/F3 cells with EGFR Δ19del/T790M/C797S mutation gene stably overexpressed (Homo sapiens, UniProt P00533, T790M/C797S, cells depend on it, form not given); assay: Ba/F3-Δ19del/T790M/C797S cell proliferation assay (CellTiter Glo, 72 hours); assay type: cell-based
Procedure, shortened: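 Ba/F3 cells stably overexpressing wild-type EGFR or EGFR Δ19del/T790M/C797S were seeded at 2000 cells/well and incubated 72 h with compound. Viability was read by CellTiter-Glo luminescence, and IC50 came from a four-parameter logistic fit of signal against log concentration.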

A431 = A431 cell proliferation assay (CellTiter Glo, 72 hours); assay type: cell-based; conditions: Homo sapiens, A-431, 72 h
Procedure, shortened: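 Luminescence (CellTiter-Glo) after 72 h treatment gives viability, fitted by nonlinear regression to yield IC50. Cells seeded at 2000 per well; nine 3-fold concentrations from 1000 nM, DMSO final 0.1% (0.5% for certain compounds).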

EGFR WT = EGFR WT (Homo sapiens, UniProt P00533); assay: EGFR WT kinase test (mobility variation analysis, Caliper EZ Reader); assay type: biochemical; conditions: kinase enzymatic activity, Table 1
Procedure, shortened: (§1)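 Read-out is substrate-to-product conversion by mobility shift, stopped after incubation at room temperature with ATP and substrate, following a 10-minute room-temperature compound–enzyme pre-incubation. IC50 obtained by four-parameter variable-slope fitting of inhibition normalized between enzyme-free and uninhibited controls.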

IGF1R = IGF1R (Homo sapiens, UniProt P08069); assay: IGF1R kinase test (mobility variation analysis, Caliper EZ Reader); assay type: biochemical; conditions: kinase enzymatic activity, Table 1; read-out: EGFR IGF1R IC50
Procedure, shortened: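 Mobility-shift readout of substrate conversion, normalised to positive (no compound) and negative (no kinase) controls, gives % inhibition and IC50 by four-parameter fit. Compounds, 3-fold dilutions over 10 concentrations starting at 3000 nM, preincubated 10 min with kinase before ATP/substrate start; room temperature.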

EGFRΔ19del/T790M/C797S = EGFRΔ19del/T790M/C797S (Homo sapiens, UniProt P00533, T790M/C797S, form not given); assay: EGFR Δ19del/T790M/C797S kinase test (mobility variation analysis, Caliper EZ Reader); assay type: biochemical; conditions: kinase enzymatic activity, Table 1
Procedure, shortened: as §1

[3] = Table 2, read-out: EGFR Δ19del/T790M/C797S IC50
[4] = cell proliferation, A431, 72 hours, Table 2, read-out: A431 IC50

Ba/F3-EGFR wild-type cell line, sequence (P00533 whole entry, stated change not applied): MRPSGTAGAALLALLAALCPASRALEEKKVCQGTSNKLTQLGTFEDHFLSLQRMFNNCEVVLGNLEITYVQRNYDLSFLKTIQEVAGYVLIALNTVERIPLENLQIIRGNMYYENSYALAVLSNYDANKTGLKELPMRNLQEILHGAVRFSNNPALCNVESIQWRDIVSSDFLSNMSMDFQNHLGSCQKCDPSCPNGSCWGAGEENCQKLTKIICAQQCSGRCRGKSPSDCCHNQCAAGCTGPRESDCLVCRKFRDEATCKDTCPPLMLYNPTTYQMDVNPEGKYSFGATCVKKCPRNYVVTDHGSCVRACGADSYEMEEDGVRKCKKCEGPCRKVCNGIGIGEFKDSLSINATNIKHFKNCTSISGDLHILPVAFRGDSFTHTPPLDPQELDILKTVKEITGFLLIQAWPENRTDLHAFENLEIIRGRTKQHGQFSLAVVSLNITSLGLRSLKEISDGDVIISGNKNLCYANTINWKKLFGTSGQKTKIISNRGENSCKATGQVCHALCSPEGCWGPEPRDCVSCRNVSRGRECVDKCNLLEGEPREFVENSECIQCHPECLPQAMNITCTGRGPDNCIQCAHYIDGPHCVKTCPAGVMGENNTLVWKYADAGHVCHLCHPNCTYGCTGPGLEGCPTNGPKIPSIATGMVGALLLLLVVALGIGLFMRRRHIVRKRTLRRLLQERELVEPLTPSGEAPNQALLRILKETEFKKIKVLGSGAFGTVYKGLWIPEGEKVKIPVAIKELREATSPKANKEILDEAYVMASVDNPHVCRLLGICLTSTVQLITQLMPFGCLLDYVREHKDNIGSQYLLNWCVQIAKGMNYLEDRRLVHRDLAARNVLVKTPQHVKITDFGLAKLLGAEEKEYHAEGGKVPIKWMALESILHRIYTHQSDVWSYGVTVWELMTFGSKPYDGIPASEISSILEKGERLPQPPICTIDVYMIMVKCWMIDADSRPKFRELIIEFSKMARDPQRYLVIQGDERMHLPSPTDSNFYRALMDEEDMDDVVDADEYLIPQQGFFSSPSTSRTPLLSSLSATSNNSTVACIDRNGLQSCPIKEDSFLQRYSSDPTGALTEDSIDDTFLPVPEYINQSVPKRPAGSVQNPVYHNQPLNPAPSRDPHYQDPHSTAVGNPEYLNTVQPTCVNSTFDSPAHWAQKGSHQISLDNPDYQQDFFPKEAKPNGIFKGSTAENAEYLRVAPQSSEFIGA
EGFRΔ19del/T790M/C797S, sequence (P00533 with tags, fused parts or gaps DEL746-750/T790M/C797S, form open): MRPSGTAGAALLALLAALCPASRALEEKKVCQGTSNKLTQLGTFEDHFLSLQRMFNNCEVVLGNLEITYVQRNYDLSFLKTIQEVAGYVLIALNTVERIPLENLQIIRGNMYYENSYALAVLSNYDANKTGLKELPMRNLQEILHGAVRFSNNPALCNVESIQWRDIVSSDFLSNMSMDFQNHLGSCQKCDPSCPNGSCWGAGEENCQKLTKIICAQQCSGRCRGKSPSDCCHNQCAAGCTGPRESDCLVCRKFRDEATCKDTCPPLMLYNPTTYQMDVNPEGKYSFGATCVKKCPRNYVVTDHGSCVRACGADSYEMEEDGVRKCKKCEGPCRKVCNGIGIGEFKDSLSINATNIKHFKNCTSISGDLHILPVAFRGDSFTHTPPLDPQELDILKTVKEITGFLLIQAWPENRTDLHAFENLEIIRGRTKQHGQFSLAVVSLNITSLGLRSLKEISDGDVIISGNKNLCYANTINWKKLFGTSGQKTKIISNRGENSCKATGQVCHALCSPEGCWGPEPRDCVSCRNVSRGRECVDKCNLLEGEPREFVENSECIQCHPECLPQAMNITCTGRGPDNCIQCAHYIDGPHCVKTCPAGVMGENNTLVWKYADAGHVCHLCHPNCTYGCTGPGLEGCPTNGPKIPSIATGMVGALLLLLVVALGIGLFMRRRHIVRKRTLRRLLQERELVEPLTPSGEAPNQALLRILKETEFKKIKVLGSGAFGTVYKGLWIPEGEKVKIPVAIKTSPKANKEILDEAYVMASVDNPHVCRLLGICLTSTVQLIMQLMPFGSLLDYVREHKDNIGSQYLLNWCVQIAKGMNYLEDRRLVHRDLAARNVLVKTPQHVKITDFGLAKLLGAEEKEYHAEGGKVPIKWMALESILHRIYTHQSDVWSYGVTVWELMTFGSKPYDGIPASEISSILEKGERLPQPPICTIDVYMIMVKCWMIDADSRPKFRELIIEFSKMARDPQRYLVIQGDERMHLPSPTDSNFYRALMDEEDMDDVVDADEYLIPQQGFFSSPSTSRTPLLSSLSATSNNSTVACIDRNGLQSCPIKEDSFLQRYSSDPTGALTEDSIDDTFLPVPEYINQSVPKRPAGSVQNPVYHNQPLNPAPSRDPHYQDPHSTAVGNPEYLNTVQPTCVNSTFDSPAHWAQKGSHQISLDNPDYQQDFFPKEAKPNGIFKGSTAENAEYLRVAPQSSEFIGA
Ba/F3 cells with EGFR Δ19del/T790M/C797S mutation gene stably overexpressed, sequence (P00533 with tags, fused parts or gaps DEL746-750/T790M/C797S, form open): as above
IGF1R, sequence (P08069 31-1367, species assumed): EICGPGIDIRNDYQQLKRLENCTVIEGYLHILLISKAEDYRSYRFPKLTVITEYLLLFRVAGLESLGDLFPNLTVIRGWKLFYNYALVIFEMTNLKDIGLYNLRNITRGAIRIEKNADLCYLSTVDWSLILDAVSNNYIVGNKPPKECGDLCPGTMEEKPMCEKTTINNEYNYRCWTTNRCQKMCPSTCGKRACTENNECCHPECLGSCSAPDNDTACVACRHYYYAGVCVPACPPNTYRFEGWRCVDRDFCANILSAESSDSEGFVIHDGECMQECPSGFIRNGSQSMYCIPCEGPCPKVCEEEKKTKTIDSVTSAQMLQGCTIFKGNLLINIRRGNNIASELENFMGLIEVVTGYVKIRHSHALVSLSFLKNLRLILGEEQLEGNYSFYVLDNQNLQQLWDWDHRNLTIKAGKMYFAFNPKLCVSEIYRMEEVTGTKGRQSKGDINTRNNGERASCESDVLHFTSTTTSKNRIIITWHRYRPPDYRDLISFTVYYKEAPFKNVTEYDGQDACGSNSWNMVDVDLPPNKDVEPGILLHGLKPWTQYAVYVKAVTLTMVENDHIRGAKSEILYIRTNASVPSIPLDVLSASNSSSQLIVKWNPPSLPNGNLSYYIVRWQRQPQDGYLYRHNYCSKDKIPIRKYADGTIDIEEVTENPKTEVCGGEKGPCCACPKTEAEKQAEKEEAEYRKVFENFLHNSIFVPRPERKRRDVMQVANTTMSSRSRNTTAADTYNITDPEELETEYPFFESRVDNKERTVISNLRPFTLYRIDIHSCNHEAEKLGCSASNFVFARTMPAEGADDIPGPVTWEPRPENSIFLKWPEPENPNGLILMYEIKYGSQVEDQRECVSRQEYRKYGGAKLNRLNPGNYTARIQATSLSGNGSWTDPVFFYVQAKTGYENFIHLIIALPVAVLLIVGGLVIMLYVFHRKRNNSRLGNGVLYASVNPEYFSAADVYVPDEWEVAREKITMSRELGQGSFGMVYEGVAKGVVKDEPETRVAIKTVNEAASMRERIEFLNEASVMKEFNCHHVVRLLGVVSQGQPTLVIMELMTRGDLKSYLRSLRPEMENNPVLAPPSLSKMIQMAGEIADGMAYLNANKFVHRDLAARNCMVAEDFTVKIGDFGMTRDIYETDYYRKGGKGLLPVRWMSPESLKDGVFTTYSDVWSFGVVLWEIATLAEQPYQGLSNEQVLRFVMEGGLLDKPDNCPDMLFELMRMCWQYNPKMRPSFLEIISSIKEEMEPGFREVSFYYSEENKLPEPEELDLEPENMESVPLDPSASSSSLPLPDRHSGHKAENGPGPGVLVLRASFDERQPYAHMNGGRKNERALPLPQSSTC

SMILES | GI50 [1] [nM] | GI50 [2, 3] [nM] | IC50 (A431; [4]) [nM] | IC50 (EGFR WT) [nM] | IC50 (IGF1R) [nM] | IC50 (EGFRΔ19del/T790M/C797S) [nM] | GI50 ([2]; read-out: EGFR Δ19del/T790M/C797S IC50, Table 2) [nM] | IC50 (A431; read-out: A431 IC50(nM)) [nM]
COc1cc(N2CCC(N3CCN(C)CC3)CC2)ccc1Nc1ncc(Cl)c(Nc2ccccc2P(C)(C)=O)n1 [Brigatinib, reference compound] | 22.5 | – | – | – | 23.4 | – | 64.9 | 309
COc1cc(N2CCC(N3CCCCC3)CC2)c(-c2cnn(C)c2)cc1Nc1ncc(Br)c(Nc2ccc(-c3ccccc3)c(C)c2P(C)(C)=O)n1 [Compound K-051] | 15.8 | 1.4 | 125 | – | – | – | – | –
CCn1cc(-c2cc(Nc3ncc(Br)c(Nc4ccc(-c5cc(C)n(C)n5)cc4P(C)(C)=O)n3)c(OC)cc2N2CCC(N3CCN(C)CC3)CC2)cn1 [Compound K-005, (2-((5-Bromo-2-((5-(1-ethyl-1H-pyrazol-4-yl)-2-methoxy-4-(4-(4-methylpiperazin-1-yl)piperidin-1-yl)phenyl)amino)pyrimidin-4-yl)amino)-5-(1,5-dimethyl-1H-pyrazol-3-yl)phenyl)dimethylphosphine oxide] | 482 | 27.9 | 415 | – | – | – | – | –
COc1cnn(-c2ccc(Nc3nc(Nc4cc(-c5cnn(C)c5)c(N5CCN(C6CCCC6)CC5)cc4OC)ncc3Br)c(P(C)(C)=O)c2)c1 [Compound K-081] | 52.1 | 1 | 379 | – | – | – | – | –
COc1cc(N2CCC(N3CCN(C)CC3)CC2)ccc1Nc1ncc(Cl)c(Nc2ccc(C)cc2P(C)(C)=O)n1 [compound 1, reference compound] | 836 | 49.9 | 598 | 60 | 44.1 | – | – | –
COc1cnn(-c2ccc(Nc3nc(Nc4cc(C)c(N5CCOCC5)c(OC)c4)ncc3Br)c(P(C)(C)=O)c2)c1 [Compound K-031, (2-((5-Bromo-2-((3-methoxy-5-methyl-4-morpholinophenyl)amino)pyrimidin-4-yl)amino)-5-(4-methoxy-1H-pyrazol-1-yl)phenyl)dimethylphosphine oxide] | 150 | 16.8 | – | 1130 | 394 | 1.4 | – | –
COc1cn(-c2ccc(Nc3nc(Nc4cc(-c5cnn(C)c5)c(N5CCN(c6cccnc6)CC5)cc4OC)ncc3Br)c(P(C)(C)=O)c2)cn1 [Compound K-083, (2-((5-Bromo-2-((2-methoxy-5-(1-methyl-1H-pyrazol-4-yl)-4-(4-(pyridin-3-yl)Piperazin-1-yl)phenyl)amino)pyrimidin-4-yl)amino)-5-(4-methoxy-1H-imidazol-1-yl)phenyl)dimethylphosphine oxide] | 113 | 1 | 910 | – | – | – | – | –
COc1cnn(-c2ccc(Nc3nc(Nc4cc(-c5cnn(C)c5)c(N5CCN(C(C)=O)CC5)cc4OC)ncc3Br)c(P(C)(C)=O)c2)c1 [Compound K-082] | 2960 | 11.4 | 1260 | – | – | – | – | –

More lines, main results first:

GI50 [1] [nM] | GI50 [2, 3] [nM] | IC50 (A431; [4]) [nM] | IC50 (EGFR WT) [nM] | IC50 (IGF1R) [nM] | IC50 (EGFRΔ19del/T790M/C797S) [nM] | SMILES | GI50 ([2]; read-out: EGFR Δ19del/T790M/C797S IC50, Table 2) [nM] | IC50 (A431; read-out: A431 IC50(nM)) [nM]
1120 | 28.6 | 5770 | – | – | – | CCc1cc(Nc2ncc(Br)c(Nc3ccc(-c4cnn(C(C)C)n4)cc3P(C)(C)=O)n2)c(OC)cc1N1CCC(N2CCN(C)CC2)CC1 [Compound 85, (2-((5-Bromo-2-((5-ethyl-2-methoxy-4-(4-(4-methylpiperazin-1-yl)piperidin-1-yl)phenyl)amino)pyrimidin-4-yl)amino)-5-(2-isopropyl-2H-l,2,3-triazol-4-yl)phenyl)dimethylphosphine oxide] | – | –
180 | 5.8 | 5150 | 29.7 | 91.1 | 0.2 | CCc1cc(Nc2ncc(Br)c(Nc3ccc(-c4cnc(OC)nc4)cc3P(C)(C)=O)n2)c(OC)cc1N1CCC(N2CCN(C)CC2)CC1 [Compound 34, (2-((5-Bromo-2-((5-ethyl-2-methoxy-4-(4-(4-methylpiperazin-1-yl)piperidin-1-yl)phenyl)amino)pyrimidin-4-yl)amino)-5-(2-methoxypyrimidin-5-yl)phenyl)dimethylphosphine oxide] | – | –
365 | 11.8 | 1470 | 19 | 120 | 0.5 | CCc1cc(Nc2ncc(Cl)c(Nc3ccc(-c4ncc(OC)cn4)cc3P(C)(C)=O)n2)c(OC)cc1N1CCC(N2CCN(C)CC2)CC1 [Compound 20, (2-((5-Chloro-2-((5-ethyl-2-methoxy-4-(4-(4-methylpiperazin-1-yl)piperidin-1-yl)phenyl)amino)pyrimidin-4-yl)amino)-5-(5-methoxypyrimidin-2-yl)phenyl)dimethylphosphine oxide] | – | –
180 | 11.6 | 1270 | – | – | – | CCc1cc(Nc2ncc(Br)c(Nc3ccc(-c4cnn(C(F)F)n4)cc3P(C)(C)=O)n2)c(OC)cc1N1CCC(N2CCN(C)CC2)CC1 [Compound K-006, (2-((5-Bromo-2-((5-ethyl-2-methoxy-4-(4-(4-methylpiperazin-1-yl)piperidin-1-yl)phenyl)amino)pyrimidin-4-yl)amino)-5-(2-(difluoromethyl)-2H-1,2,3-triazol-4-yl)phenyl)dimethylphosphine oxide] | – | –
84.3 | 1.9 | 465 | – | 71.9 | 0.6 | CCc1cc(Nc2ncc(Br)c(Nc3ccc(-c4cnn(CC)c4)cc3P(C)(C)=O)n2)c(OC)cc1N1CCC(N2CCN(C)CC2)CC1 [Compound 4, (2-((5-Bromo-2-((5-ethyl-2-methoxy-4-(4-(4-methylpiperazin-1-yl)piperidin-1-yl)phenyl)amino)pyrimidin-4-yl)amino)-5-(1-ethyl-1hydro-pyrazol-4-yl)phenyl)dimethylphosphine oxide] | – | –
107 | 4.5 | 602 | – | 53.7 | 0.3 | CCc1cc(Nc2ncc(Br)c(Nc3ccc(-c4cnn(C)c4)cc3P(C)(C)=O)n2)c(OC)cc1N1CCC(N2CCN(C)CC2)CC1 [Compound 3, (2-((5-Bromo-2-((5-ethyl-2-methoxy-4-(4-(4-methylpiperazin-1-yl)piperidin-1-yl)phenyl)amino)pyrimidin-4-yl)amino)-5-(1-methyl-1hydro-pyrazol-4-yl)phenyl)dimethylphosphine oxide] | – | –
335 | 15.6 | 371 | – | – | – | CCc1cc(Nc2ncc(Br)c(Nc3ccc(-c4cnn(C)c4)cc3P(C)(C)=O)n2)c(OC)cc1N1CCC(N2CCCC2)CC1 [Compound K-001] | – | –
141 | 5.4 | 564 | – | – | 0.4 | CCc1cc(Nc2ncc(Br)c(Nc3ccc(-c4ccco4)cc3P(C)(C)=O)n2)c(OC)cc1N1CCC(N2CCN(C)CC2)CC1 [Compound 16, (2-((5-Bromo-2-((5-ethyl-2-methoxy-4-(4-(4-methylpiperazin-1-yl)piperidin-1-yl)phenyl)amino)pyrimidin-4-yl)amino)-5-(furan-2-yl)phenyl)dimethylphosphine oxide] | – | –
132 | – | – | – | – | – | CCc1cc(Nc2ncc(Br)c(Nc3ccc(-c4cnc(C)cn4)cc3P(C)(C)=O)n2)c(OC)cc1N1CCC(N2CCN(C)CC2)CC1 [Compound K-065, (2-((5-Bromo-2-((5-ethyl-2-methoxy-4-(4-(4-methylpiperazin-1-yl)piperidin-1-yl)phenyl)amino)pyrimidin-4-yl)amino)-5-(5-methylpyrazin-2-yl)phenyl)dimethylphosphine oxide] | – | –
206 | – | – | – | – | – | CCc1cc(Nc2ncc(Br)c(Nc3ccc(-c4cnc(N(C)C)nc4)cc3P(C)(C)=O)n2)c(OC)cc1N1CCC(N2CCN(C)CC2)CC1 [Compound K-057, (2-((5-Bromo-2-((5-ethyl-2-methoxy-4-(4-(4-methylpiperazin-1-yl)piperidin-1-yl)phenyl)amino)pyrimidin-4-yl)amino)-5-(2-(dimethylamino)pyrimidin-5-yl)phenyl)dimethylphosphine oxide] | – | –
